Experimental data from patent publication US11992493B1, “Use of compound or pharmaceutical derivative thereof in inhibiting CaMK2G protein activity” (priority 2022, dated 2024).

Legend:
CaMK2γ = molecular target: T1, CaMK2γ (Homo sapiens, UniProt Q13555); test: ADP-Glo Kinase Assay + CaMK2γ Kinase Enzyme System (Promega #V9201); assay type: biochemical; details: inhibitor final concentration 10 μM, compared with positive control, p<0.0001
T1 construct: purchased Promega #V9201
Experimental: The kinase activity (%) of 130 compounds screened above are detected by ADP-Glo™ Kinase Assay+CaMK2γ Kinase Enzyme System (Promega #V9201), and the evaluation standard is kinase activity (%).
The kinase activity (%) of each well is calculated by the above method.
In the embodiment of the disclosure, the inhibition of T2533 on CaMK2γ protein activity is detected by ADP-Glo™ Kinase Assay+CaMK2 γ Kinase Enzyme System (Promega #V9201), and the specific experimental steps and settings are as follows.
(1) well setting: 2 blank wells, 2 normal reaction wells, 2 dimethyl sulfoxide (DMSO) control wells, 40 inhibitor wells with 2 plex wells for each inhibitor and 20 inhibitors. There are 46 wells in total.
(2) preparation of a kinase reaction reagent: • (a) preparation of 200 […] 4× Kinase Buffer is as shown in Table 5 below. 175 μL of the 4× Kinase Buffer is required for a single experiment, that is, 2.5*20+62.5+62.5=175 μL. The rest is prepared into 1× Kinase Buffer and used as blank well.
• (b) preparation of 10 μL 5× inhibitor solution (final concentration is 10 micromoles per liter abbreviated μM), and 2.5 μL/well. Specifically, the inhibitor is 10 millimoles per liter abbreviated mM, diluted to 1 mM with DMSO in a ratio of 1:9; the preparation method of DMSO is the same as that of inhibitor, which is used as the DMSO control well, as shown in Table 6 below. […]

[1] = molecular target: T2, human-derived CaMK2γ protein (Homo sapiens, UniProt Q13555); test: SPR (Biacore, CM5 chip amine-coupling) affinity to human-derived CaMK2γ protein; details: human-derived full-length CaMK2γ protein, read-out: binding constant
T2 construct: a pET28A vector is firstly used to express and purify the human-derived full-length CaMK2γ protein; made in house; host or cells: pET28A vector
Experimental: (§1) In the embodiment of the disclosure, the affinity between T2533 and human-derived CaMK2γ protein are detected. Specifically, a pET28A vector is firstly used to express and purify the human-derived full-length CaMK2γ protein. Subsequently, the affinity is determined by the surface plasmon resonance (SPR) method of Biacore™ using a CM5 chip amine-coupling.

[2] = tested on: IL17A^+ cells in dermal γδT subsets; test: Flow cytometry of skin lymphocytes of IMQ-induced mice; assay type: in vivo, mouse; details: 5 mg/kg; compared with IMQ-induced mice without T2533
Experimental: (§2) DMSO is used to dissolve T2533 powder, the T2533 powder is weighed according to different dosage, and then diluted with β-cyclodextrin, the final concentration of DMSO is not more than 5%. The dose gradient of T2533 is 0 mg/kg, 2.5 mg/kg, 5 mg/kg, and 10 mg/kg. Each mouse is calculated as 20 grams (g), and each mouse needs to be administered 0 mg, 0.05 mg, 0.1 mg, and 0.2 mg per day.
Seven-week-old C57/BL6 mice are bred and modeled in SPF-level environment. […]
In each group of 6 mice, the hair on the back of the mice is shaved to make the exposed skin reach 4 square centimeters. […] The skin of mice is scored every day, the mice are euthanized on Day 4, and the skin tissues are taken for a series of detection.
(§3) The skin lymphocytes of mice in the above groups are isolated and detected by flow cytometry (i.e., the detection of the proportion of IL17A^+ cells in dermal γδT subsets, the IL17A^+ cells are main effector cells mediated by the CaMK2γ pathway of psoriasis and can secrete a large number of IL-17 cytokines to aggravate psoriasis). […] Quantitative PCR is performed on known proinflammatory genes closely related to psoriasis, including Il17a, Il17f, Il22, Tnfa and Il23a.

[3] = molecular target: T3, mouse-derived CaMK2γ protein (Mus musculus, UniProt Q923T9); test: SPR (Biacore, CM5 chip amine-coupling) affinity to mouse-derived CaMK2γ protein; details: mouse-derived full-length CaMK2γ protein, read-out: binding constant
T3 construct: a pET28A vector is firstly used to express and purify the mouse-derived full-length CaMK2γ protein; made in house; host or cells: pET28A vector
Experimental: as §1, with “mouse-derived” for “human-derived”, “SPR” for “surface plasmon resonance (SPR)”

[4] = tested on: Il17a, Il17f, Il22, Tnfa and Il23a; test: Quantitative PCR of proinflammatory genes in skin of IMQ-induced mice; assay type: in vivo, mouse; details: qPCR
Experimental: as §2
(§4) Seven-week-old C57/BL6 mice are bred and modeled in SPF-level environment. The experimental groups are as follows: (1) applying the skin with imiquimod (IMQ) and 0 mg/kg T2533; (2) applying the skin with IMQ and 2.5 mg/kg T2533; (3) applying the skin with IMQ and 5 mg/kg T2533; (4) applying the skin with IMQ and 10 mg/kg T2533; (5) applying the skin with Vaseline® and 0 mg/kg T2533; (6) applying the skin with Vaseline® and 2.5 mg/kg T2533; (7) applying the skin with Vaseline® and 5 mg/kg T2533; and (8) applying the skin with Vaseline® and 10 mg/kg T2533.
(§5) In each group of 6 mice, the hair on the back of the mice is shaved to make the exposed skin reach 4 square centimeters. The start date of the experiment is set as Day−2, and the end date is set as Day4. From Day−2 to Day3, 200 μL of liquid drug is taken in the morning and evening every day and evenly smeared on the skin of mice until it is absorbed. From Day 0 to Day 3, 62.5 mg IMQ is applied to each mouse at noon of every day. The skin of mice is scored every day, the mice are euthanized on Day 4, and the skin tissues are taken for a series of detection.
as §3

IMQ-induced mice = test: IMQ-induced psoriatic mouse model: PASI score, erythema, scaling, skin thickness, skin phenotype; assay type: in vivo; details: smeared on skin, Day−2 to Day3
Experimental: as §2, §4, §5
The PASI score results and the corresponding score results of erythema, scaling, and skin thickness of the above IMQ modelled mice are shown in FIG. 9, FIG. 10, FIG. 11, and FIG. 12, respectively. The skin phenotypes and skin pathological phenotypes are shown in FIG. 13 and FIG. 14, respectively.

T1 sequence (Q13555 whole entry): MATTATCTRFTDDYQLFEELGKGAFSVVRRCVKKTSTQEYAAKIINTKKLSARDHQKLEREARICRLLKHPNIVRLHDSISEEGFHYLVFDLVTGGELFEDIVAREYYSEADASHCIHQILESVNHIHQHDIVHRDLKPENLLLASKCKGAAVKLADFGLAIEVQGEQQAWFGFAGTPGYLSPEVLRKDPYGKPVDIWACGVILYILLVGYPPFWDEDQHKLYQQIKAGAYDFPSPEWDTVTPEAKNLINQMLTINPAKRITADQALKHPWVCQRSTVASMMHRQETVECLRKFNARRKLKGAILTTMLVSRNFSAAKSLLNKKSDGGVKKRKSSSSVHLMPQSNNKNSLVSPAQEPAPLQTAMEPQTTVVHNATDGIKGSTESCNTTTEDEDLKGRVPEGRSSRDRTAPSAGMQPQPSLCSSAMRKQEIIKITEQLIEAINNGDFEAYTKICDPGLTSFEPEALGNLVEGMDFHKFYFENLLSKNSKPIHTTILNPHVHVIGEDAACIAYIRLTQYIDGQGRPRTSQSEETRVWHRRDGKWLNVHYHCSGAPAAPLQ
T2 sequence (Q13555 whole entry): as above
T3 sequence (Q923T9 whole entry): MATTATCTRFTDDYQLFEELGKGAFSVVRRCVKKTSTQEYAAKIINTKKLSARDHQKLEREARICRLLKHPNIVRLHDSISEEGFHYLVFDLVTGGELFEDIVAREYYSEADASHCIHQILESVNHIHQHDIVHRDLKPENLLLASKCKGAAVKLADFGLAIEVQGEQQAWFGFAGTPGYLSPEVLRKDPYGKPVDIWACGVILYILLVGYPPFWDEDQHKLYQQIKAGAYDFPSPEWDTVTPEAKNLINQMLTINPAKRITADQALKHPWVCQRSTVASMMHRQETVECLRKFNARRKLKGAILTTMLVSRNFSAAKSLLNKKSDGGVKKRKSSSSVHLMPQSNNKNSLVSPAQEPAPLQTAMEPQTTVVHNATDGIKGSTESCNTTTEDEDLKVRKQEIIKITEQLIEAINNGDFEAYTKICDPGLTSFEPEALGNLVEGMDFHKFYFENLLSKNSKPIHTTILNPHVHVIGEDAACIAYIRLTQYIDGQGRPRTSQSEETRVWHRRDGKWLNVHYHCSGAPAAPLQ

Structure (SMILES): CN1CCC(=C2c3ccccc3CCn3c(C=O)cnc32)CC1 [T2533, Alcaftadine]
- inhibition effect on kinase activity (%) (CaMK2γ): effectively reduce the expression of CaMK2γ protein
- inhibition effect on kinase activity (%) (CaMK2γ; listed as compound I): most significant inhibition effect
- Kd [1]: 25.4 µM
- proportion of IL-17A^+ cells in dermal γδT subsets [2]: significantly reduced
- Kd [3]: 68.4 µM
- expression of Il17a in the skin ([4]; 2.5 mg/kg): decrease significantly
- expression of Il17f in the skin ([4]; 2.5 mg/kg): decrease significantly
- expression of Il22 in the skin ([4]; 2.5 mg/kg): unchanged
- expression of Il23a in the skin ([4]; 2.5 mg/kg): unchanged
- expression of Tnfa in the skin ([4]; 2.5 mg/kg): unchanged
- expression of Il17a in the skin ([4]; 5 mg/kg): decrease significantly
- expression of Il17f in the skin ([4]; 5 mg/kg): decrease significantly
- expression of Il22 in the skin ([4]; 5 mg/kg): unchanged
- expression of Il23a in the skin ([4]; 5 mg/kg): decrease significantly
- expression of Tnfa in the skin ([4]; 5 mg/kg): decrease significantly
- inflammatory phenotype of IMQ-induced mice (IMQ-induced mice; 2.5 mg/kg): reduces the inflammatory phenotype
- inflammatory phenotype of IMQ-induced mice (IMQ-induced mice; 5 mg/kg): most significant
- inflammatory phenotype of IMQ-induced mice (IMQ-induced mice; 10 mg/kg): reduces the inflammatory phenotype
